Measurements taken from article PMC10491774 (Cell Death & Disease, 2023).

Target: 6-phosphofructo-2-kinase/fructose-2,6-bisphosphatase 3 (PFKFB3) (Homo sapiens, UniProt Q16875)
Experiment: ADP-Glo kinase assay with purified recombinant human PFKFB3; partial inhibition, only by the Ca2+-free form; counter assay done
Type: biochemical

6-phosphofructo-2-kinase/fructose-2,6-bisphosphatase 3 (PFKFB3), sequence (Q16875 whole entry): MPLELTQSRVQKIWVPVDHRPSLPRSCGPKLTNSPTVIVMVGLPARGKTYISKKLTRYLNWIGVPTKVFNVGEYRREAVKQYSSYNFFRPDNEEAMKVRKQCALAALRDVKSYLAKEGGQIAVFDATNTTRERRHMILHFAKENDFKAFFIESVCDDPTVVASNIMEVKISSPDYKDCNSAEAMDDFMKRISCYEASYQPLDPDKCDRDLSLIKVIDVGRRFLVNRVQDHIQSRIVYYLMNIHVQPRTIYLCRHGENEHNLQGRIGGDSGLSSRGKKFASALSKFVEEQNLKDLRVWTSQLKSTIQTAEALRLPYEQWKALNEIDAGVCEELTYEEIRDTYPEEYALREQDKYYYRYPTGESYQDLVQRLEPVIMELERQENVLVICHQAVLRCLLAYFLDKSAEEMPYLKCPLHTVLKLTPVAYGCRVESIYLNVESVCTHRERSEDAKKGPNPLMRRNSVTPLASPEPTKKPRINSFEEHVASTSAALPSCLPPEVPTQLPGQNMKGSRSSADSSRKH

**Q.** `O=C(O)CN(CC(=O)O)c1ccccc1OCCOc1ccccc1N(CC(=O)O)CC(=O)O` [BAPTA, 1,2-Bis-(o-Aminophenoxy)-ethane-N,N,N’,N’-tetraacetic acid] was tested. Which IC50 did it give?
**A.** 110 µM
